Test: mn = molality of the nth substance listed, in mol/kg
Settings: 101 kPa, Liquid; for speed of sound: Sing-around technique in a fixed-path interferometer; for molar conductivity: dip type immersion conductance cell

O=P([O-])([O-])O.[Na+].[Na+] [disodium hydrogen phosphate] + O
Settings | mass density [kg/m3] | molar conductivity [S·m2/mol] | speed of sound [m/s]
283.15 K, m1 = 0.007 | 1000.71 | – | 1449.3
283.15 K, m1 = 0.0104 | 1001.19 | – | 1450
283.15 K, m1 = 0.0141 | 1001.72 | – | 1450.8
283.15 K, m1 = 0.032 | 1004.23 | – | 1454.2
283.15 K, m1 = 0.0386 | 1005.14 | – | 1455.5
283.15 K, m1 = 0.0411 | 1005.5 | – | 1456
283.15 K, m1 = 0.0496 | 1006.7 | – | 1457.7
283.15 K, m1 = 0.0632 | 1008.57 | – | 1460.3
283.15 K, m1 = 0.0737 | 1010.03 | – | 1462.3
283.15 K, m1 = 0.1066 | 1014.53 | – | 1468.4
283.15 K, m1 = 0.181 | 1024.58 | – | 1481.8
283.15 K, m1 = 0.2454 | 1033.1 | – | 1493.2
283.15 K, m1 = 0.2498 | 1033.68 | – | 1493.8
283.15 K, m1 = 0.2939 | 1039.48 | – | 1501.6
283.15 K, m1 = 0.3192 | 1042.77 | – | 1506
283.15 K, m1 = 0.3723 | 1049.55 | – | 1514.9
283.15 K, m1 = 0.4483 | 1059.19 | – | 1527.7
283.15 K, m1 = 0.6185 | 1080.36 | – | 1555.7
283.15 K, m1 = 0.7841 | 1100.26 | – | 1582.3
288.15 K, m1 = 0.007 | 1000.1 | – | 1467.6
288.15 K, m1 = 0.0104 | 1000.57 | – | 1468.3
288.15 K, m1 = 0.0141 | 1001.09 | – | 1469
288.15 K, m1 = 0.032 | 1003.56 | – | 1472.3
288.15 K, m1 = 0.0386 | 1004.46 | – | 1473.6
288.15 K, m1 = 0.0411 | 1004.81 | – | 1474.1
288.15 K, m1 = 0.0496 | 1006 | – | 1475.7
288.15 K, m1 = 0.0632 | 1007.85 | – | 1478.2
288.15 K, m1 = 0.0737 | 1009.28 | – | 1480.1
288.15 K, m1 = 0.1066 | 1013.73 | – | 1486
288.15 K, m1 = 0.181 | 1023.64 | – | 1499.1
288.15 K, m1 = 0.2454 | 1032.07 | – | 1510.1
288.15 K, m1 = 0.2498 | 1032.64 | – | 1510.8
288.15 K, m1 = 0.2939 | 1038.38 | – | 1518.3
288.15 K, m1 = 0.3192 | 1041.64 | – | 1522.6
288.15 K, m1 = 0.3723 | 1048.34 | – | 1531.2
288.15 K, m1 = 0.4483 | 1057.89 | – | 1543.6
288.15 K, m1 = 0.6185 | 1078.87 | – | 1570.8
288.15 K, m1 = 0.7841 | 1098.62 | – | 1596.7
293.15 K, m1 = 0.007 | 999.185 | – | 1483.8
293.15 K, m1 = 0.0104 | 999.653 | – | 1484.5
293.15 K, m1 = 0.0141 | 1000.17 | – | 1485.2
293.15 K, m1 = 0.032 | 1002.61 | – | 1488.4
293.15 K, m1 = 0.0386 | 1003.49 | – | 1489.6
293.15 K, m1 = 0.0411 | 1003.85 | – | 1490.1
293.15 K, m1 = 0.0496 | 1005.01 | – | 1491.7
293.15 K, m1 = 0.0632 | 1006.84 | – | 1494.1
293.15 K, m1 = 0.0737 | 1008.26 | – | 1495.9
293.15 K, m1 = 0.1066 | 1012.65 | – | 1501.7
293.15 K, m1 = 0.181 | 1022.47 | – | 1514.3
293.15 K, m1 = 0.2454 | 1030.81 | – | 1525
293.15 K, m1 = 0.2498 | 1031.37 | – | 1525.7
293.15 K, m1 = 0.2939 | 1037.06 | – | 1533
293.15 K, m1 = 0.3192 | 1040.28 | – | 1537.1
293.15 K, m1 = 0.3723 | 1046.93 | – | 1545.5
293.15 K, m1 = 0.4483 | 1056.39 | – | 1557.6
293.15 K, m1 = 0.6185 | 1077.21 | – | 1584
293.15 K, m1 = 0.7841 | 1096.81 | – | 1609.1
298.15 K, m1 = 0.0049 | – | 0.01921 | –
298.15 K, m1 = 0.007 | 998.012 | – | 1498
298.15 K, m1 = 0.0104 | 998.476 | 0.01802 | 1498.7
298.15 K, m1 = 0.0141 | 998.988 | – | 1499.3
298.15 K, m1 = 0.0154 | – | 0.01735 | –
298.15 K, m1 = 0.0211 | – | 0.0167 | –
298.15 K, m1 = 0.032 | 1001.4 | – | 1502.5
298.15 K, m1 = 0.0386 | 1002.28 | – | 1503.7
298.15 K, m1 = 0.0411 | 1002.63 | – | 1504.1
298.15 K, m1 = 0.0413 | – | 0.01534 | –
298.15 K, m1 = 0.0496 | 1003.78 | – | 1505.6
298.15 K, m1 = 0.0632 | 1005.6 | – | 1508
298.15 K, m1 = 0.0712 | – | 0.014 | –
298.15 K, m1 = 0.0737 | 1007 | – | 1509.8
298.15 K, m1 = 0.1066 | 1011.35 | 0.01306 | 1515.3
298.15 K, m1 = 0.1437 | – | 0.01234 | –
298.15 K, m1 = 0.181 | 1021.07 | – | 1527.7
298.15 K, m1 = 0.1927 | – | 0.0116 | –
298.15 K, m1 = 0.2454 | 1029.34 | – | 1538
298.15 K, m1 = 0.2475 | – | 0.011 | –
298.15 K, m1 = 0.2498 | 1029.9 | – | 1538.6
298.15 K, m1 = 0.2939 | 1035.53 | – | 1545.8
298.15 K, m1 = 0.3192 | 1038.73 | – | 1549.8
298.15 K, m1 = 0.3697 | – | 0.00986 | –
298.15 K, m1 = 0.3723 | 1045.32 | – | 1558
298.15 K, m1 = 0.4438 | – | 0.009224 | –
298.15 K, m1 = 0.4483 | 1054.71 | – | 1569.7
298.15 K, m1 = 0.5295 | – | 0.008621 | –
298.15 K, m1 = 0.6125 | – | 0.00816 | –
298.15 K, m1 = 0.6185 | 1075.38 | – | 1595.4
298.15 K, m1 = 0.6768 | – | 0.00778 | –
298.15 K, m1 = 0.7479 | – | 0.007445 | –
298.15 K, m1 = 0.7841 | 1094.86 | – | 1619.8
298.15 K, m1 = 0.8346 | – | 0.00706 | –
298.15 K, m1 = 0.9695 | – | 0.006536 | –
303.15 K, m1 = 0.007 | 996.606 | – | 1510.4
303.15 K, m1 = 0.0104 | 997.065 | – | 1511
303.15 K, m1 = 0.0141 | 997.573 | – | 1511.7
303.15 K, m1 = 0.032 | 999.963 | – | 1514.7
303.15 K, m1 = 0.0386 | 1000.84 | – | 1515.9
303.15 K, m1 = 0.0411 | 1001.18 | – | 1516.3
303.15 K, m1 = 0.0496 | 1002.33 | – | 1517.8
303.15 K, m1 = 0.0632 | 1004.12 | – | 1520.1
303.15 K, m1 = 0.0737 | 1005.51 | – | 1521.8
303.15 K, m1 = 0.1066 | 1009.83 | – | 1527.2
303.15 K, m1 = 0.181 | 1019.47 | – | 1539.2
303.15 K, m1 = 0.2454 | 1027.67 | – | 1549.2
303.15 K, m1 = 0.2498 | 1028.22 | – | 1549.9
303.15 K, m1 = 0.2939 | 1033.82 | – | 1556.8
303.15 K, m1 = 0.3192 | 1036.99 | – | 1560.7
303.15 K, m1 = 0.3723 | 1043.54 | – | 1568.7
303.15 K, m1 = 0.4483 | 1052.87 | – | 1580.1
303.15 K, m1 = 0.6185 | 1073.41 | – | 1605.1
303.15 K, m1 = 0.7841 | 1092.78 | – | 1628.8
